Experiments:
RBL-2H3 cells = assay: Fluorescence-based assay of store-operated calcium entry in RBL-2H3 cells; format: cell-based, rat; conditions: Rattus norvegicus, thapsigargin, inhibition of Upslope of fluorescence after calcium addition, read-out: RBL-2H3 (IC50, μmol)
Protocol: (§1) Fluorescence-based assays are used for screening the compounds described herein, such as compounds of Formulas (I), (IA), (II), (IIA), (III), (IIIA), (IV), (IVA), (V), (VA), (VI), (VIA), (VII), (VIIA), (VIII), (VIIIA), (IX), (IXA), (X), (XI), (XIA), (XII), or (XIIA) which modulate intracellular calcium.
B. Fluorescence-Based Assay of Store-Operated Calcium Entry in RBL-2H3 Cells.
RBL-2H3 cells are obtained from ATCC and maintained in complete medium with 10% FBS at 37° C./6% CO2.
The day prior to performing the assay, RBL-2H3 cells are plated in 50 μL of complete medium in a 384 well plate. Cells are grown at 37° C./6% CO2 overnight and grow to 50-60% confluence by the next day. On the assay day, 1.5 µM Fluo-4-AM dye (Invitrogen) in complete medium is added and incubated for 1 hour at RT. Cells are washed twice in Ca^2+-free HBSS buffer and 35 μL Ca^2+-free HBSS buffer is added to each well. 10 μL of a test compound prepared in a Ca^2+-free HBSS solution at 4.5× of the desired concentration is added to a well and incubated for 5 minutes at RT. 10 μL of thapsigargin prepared in a Ca^2+-free HBSS solution at 5.5× of the desired concentration (5.5 uM) is added to each well and incubated for an additional 25 minutes. The initial baseline fluorescence signal is measured with a FLIPR^384 (Molecular Devices) plate reader. 5 μL of 12× calcium in HBSS (12 mM) is added and changes in cellular fluorescence are measured with the FLIPR^384 plate reader. In each well, the change in the fluorescent signal as a function of time due to calcium entry into the cell is determined by calculating the difference between the fluorescent signal measured 7 seconds after calcium addition and the initial baseline fluorescence signal at time zero (t=0). This parameter is designated Upslope. The IC50 value is calculated as the concentration at which 50% of the Upslope is inhibited.

Orai1/STIM1 = target: T1, Orai1/STIM1 (Homo sapiens, UniProt Q96D31); assay: Fluorescence-based assay of store-operated calcium entry in Orai1/STIM1 stable cells; format: cell-based; set-up: key to Orai1/STIM1 (IC50, μmol): A, IC50 < 0.6 μM; B, IC50 = 0.6-1.2 μM; C, IC50 > 1.2 μM; — no fit; conditions: HEK-293 cells stably expressing human STIM1 and Orai1, inhibition of Peak-Basal fluorescence signal after calcium addition; for IC50: read-out: Orai1/STIM1 (IC50, μmol)
T1 construct: c-myc (C); expressed in transfected cells; host or cells: HEK-293 cells stably expressing recombinant human STIM1 and Orai1
T1 sequence (Q96D31 whole entry): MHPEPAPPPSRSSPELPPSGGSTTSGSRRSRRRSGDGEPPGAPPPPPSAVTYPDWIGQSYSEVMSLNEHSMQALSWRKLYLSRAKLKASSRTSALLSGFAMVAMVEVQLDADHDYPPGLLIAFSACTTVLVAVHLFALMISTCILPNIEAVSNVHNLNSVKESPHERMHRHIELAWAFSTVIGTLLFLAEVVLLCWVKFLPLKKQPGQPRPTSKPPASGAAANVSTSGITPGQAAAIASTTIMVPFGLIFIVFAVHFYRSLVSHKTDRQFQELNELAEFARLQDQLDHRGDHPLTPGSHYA
From the text: as §1
A. Fluorescence-Based Assay of Store-Operated Calcium Entry in Orai1/STIM1 Stable Cells.
Cells stably expressing recombinant human STIM1 and Orai1 are generated by transfecting a human Orai1 expression plasmid (pcDNA3.1-Orai1-cmyc) into HEK-293 cells stably overexpressing human STIM1 (Roos et al. 2005 JCB 169(3): 435-445). Colonies of cells stably expressing both STIM1 and Orai1 proteins are selected and then subcloned by limiting dilution. Cells were cultured at 37° C./6% CO2 in complete medium with 10% FBS and appropriate selection markers.
The day prior to performing the assay Orai1/STIM1 stable cells are plated in 50 μL of complete medium at 90-95% confluence in a 384 well plate. Cells are grown at 37° C./6% CO2 overnight. On the day of the assay, 1.5 μM fluo-4-AM (Invitrogen) in complete medium is added to the cells, which are then incubated for 1 hour at RT. Cells are washed once in Ca^2+-free HBSS (Hank's buffered saline solution) and 35 μl of Ca^2+-free HBSS is added to each well. Test compounds are added to wells in a 10 μL Ca^2+-free HBSS solution, prepared at 4.5× the desired final concentration, and incubated for 30 minutes at RT. The initial baseline fluorescence signal is then measured with a FLIPR^384 (Molecular Devices) plate reader. Calcium entry is initiated by adding 5 μl of 10×CaCl2 (10 mM) in HBSS, and changes in cellular fluorescence are measured with the FLIPR^384 plate reader. In each well, the magnitude of the fluorescence signal as a result of calcium entry into the cell is determined by calculating the difference between the peak fluorescence signal measured after calcium addition and the initial baseline fluorescence signal (designated Peak-Basal). IC50 values are typically calculated as the concentration that inhibited 50% of the Peak-Basal signal.

Structure (SMILES)	IC50 (RBL-2H3 cells)	IC50 (Orai1/STIM1)	Orai1/STIM1 (IC50, μmol) (Orai1/STIM1)
Cc1sc(C(F)(F)F)nc1-c1ccc(NCc2c(F)cc(F)cc2F)nc1 [Compound 27]	< 600 nM		
Cc1cc2c(cc1-c1cnc(NCc3c(F)cccc3F)nc1)OC(F)(F)O2 [Compound 32, 5-(2,2-difluoro-6-methyl-1,3-benzodioxol-5-yl)-N-[(2,6-difluorophenyl)methyl]pyrimidin-2-amine]	< 600 nM		
Cc1cc2c(cc1-c1ccc(NCc3c(F)cccc3F)nc1)OCCO2 [Compound 37, N-(2,6-difluorobenzyl)-5-(7-methyl-2,3-dihydrobenzo[b][1,4]dioxin-6-yl)pyridin-2-amine]	< 600 nM	600 to 1200 nM	
Fc1cccc(F)c1CNc1ccc(-c2cc3c(cc2Cl)OCCO3)cn1 [Compound 42, 5-(7-chloro-2,3-dihydrobenzo[b][1,4]dioxin-6-yl)-N-(2,6-difluorobenzyl)pyridin-2-amine]	< 600 nM	> 1200 nM	
Fc1cccc(F)c1CNc1ccc(-c2nc3c(cc2Cl)OCCO3)cn1 [Compound 45, 5-(7-chloro-2,3-dihydro-[1,4]dioxino[2,3-b]pyridin-6-yl)-N-(2,6-difluorobenzyl)pyridin-2-amine]	< 600 nM		
Cc1cc(F)ccc1CNc1ccc(-c2nc3c(cc2Cl)OCCO3)cn1 [Compound 46]	< 600 nM	600 to 1200 nM	
Cc1cc2c(cc1-c1cnc(OCc3c(F)cccc3F)nc1)OC(F)(F)O2 [Compound 62]	600 to 1200 nM		
Cn1nc(C(F)(F)F)cc1-c1cnc(OCc2c(F)cccc2F)nc1 [Compound 63]	> 1200 nM		
Cc1cc2c(cc1-c1ccc(OCc3c(F)cccc3F)nc1)OC(F)(F)O2 [Compound 66]	< 600 nM		
Cn1nc(C(F)(F)F)cc1-c1ccc(OCc2c(F)cccc2F)nc1 [Compound 67]	600 to 1200 nM		
Cn1nc(C(F)(F)F)cc1-c1ccc(NCc2c(F)cc(F)cc2F)cn1 [Compound 87]	< 600 nM		
CCn1nc(C(F)(F)F)cc1-c1ccc(NCc2ccccc2F)cn1 [Compound 88]	< 600 nM		
CCn1nc(C(F)(F)F)cc1-c1ccc(NCc2c(F)cccc2F)cn1 [Compound 89]	< 600 nM		
Cn1nc(C(F)(F)F)cc1-c1ncc(NCc2c(F)cccc2F)cc1F [Compound 91]	< 600 nM		
Cn1nc(C(F)(F)F)cc1-c1cnc(NCc2c(F)cccc2F)nc1 [Compound 94, N-(2,6-difluorobenzyl)-5-(1-methyl-3-(trifluoromethyl)-1H-pyrazol-5-yl)pyrimidin-2-amine]	< 600 nM		
Fc1ccc(C(F)(F)F)c(Oc2ccc(NCc3c(F)cccc3F)nc2)c1 [Compound 133, N-(2,6-difluorobenzyl)-5-(5-fluoro-2-(trifluoromethyl)phenoxy)pyridin-2-amine]	< 600 nM		
CCc1ccccc1Oc1ccc(NCc2c(F)cc(F)cc2F)nc1 [Compound 136]	> 1200 nM		
CCc1ccccc1Oc1ccc(NCc2c(F)cccc2F)nc1 [Compound 137]	> 1200 nM		
Fc1cc(F)c(CNc2ccc(Oc3cc(F)ccc3C(F)(F)F)cn2)c(F)c1 [Compound 138]	< 600 nM		
Fc1ccc(C(F)(F)F)c(Oc2ccc(NCc3c(F)cncc3F)nc2)c1 [Compound 139]	< 600 nM		
Fc1cc(F)c(CNc2ccc(Oc3cc(C(F)(F)F)ccc3C(F)(F)F)cn2)c(F)c1 [Compound 140]	600 to 1200 nM		
Fc1cccc(F)c1CNc1ccc(Oc2cc(C(F)(F)F)ccc2C(F)(F)F)cn1 [Compound 141]	< 600 nM		

Other lines, results leading:

IC50 (RBL-2H3 cells)	IC50 (Orai1/STIM1)	Orai1/STIM1 (IC50, μmol) (Orai1/STIM1)	Structure (SMILES)
< 600 nM	600 to 1200 nM		Fc1cccc(F)c1CNc1ccc(-c2cc3c(cc2Cl)OC(F)(F)O3)cn1 [Compound 2, 5-(6-chloro-2,2-difluorobenzo[d][1,3]dioxol-5-yl)-N-(2,6-difluorobenzyl)pyridin-2-amine]
< 600 nM	600 to 1200 nM		Cc1cc2c(cc1-c1ccc(NCc3c(F)cccc3F)nc1)OC(F)(F)O2 [Compound 4, 5-(2,2-difluoro-6-methylbenzo[d][1,3]dioxol-5-yl)-N-(2,6-difluorobenzyl)pyridin-2-amine]
< 600 nM	< 600 nM		Cc1cc2c(cc1-c1ccc(NCc3c(F)cccc3F)cn1)OC(F)(F)O2 [Compound 6, 6-(2,2-difluoro-6-methylbenzo[d][1,3]dioxol-5-yl)-N-(2,6-difluorobenzyl)pyridin-3-amine]
< 600 nM	> 1200 nM		Fc1cccc(CNc2ccc(-c3cc4c(cc3Cl)OC(F)(F)O4)cn2)c1Cl [Compound 8, 5-(6-chloro-2,2-difluorobenzo[d][1,3]dioxol-5-yl)-N-(2-chloro-3-fluorobenzyl)pyridin-2-amine]
< 600 nM	> 1200 nM		FC1(F)Oc2cc(Cl)c(-c3ccc(NCc4ccccc4Cl)nc3)cc2O1 [Compound 10, 5-(6-chloro-2,2-difluorobenzo[d][1,3]dioxol-5-yl)-N-(2-chlorobenzyl)pyridin-2-amine]
< 600 nM		—	FC1(F)Oc2cc(Cl)c(-c3ccc(NCc4ccccc4C(F)(F)F)nc3)cc2O1 [Compound 12, 5-(6-chloro-2,2-difluorobenzo[d][1,3]dioxol-5-yl)-N-(2-(trifluoromethyl)benzyl)pyridin-2-amine]
< 600 nM	> 1200 nM		Fc1ccc(CNc2ccc(-c3cc4c(cc3Cl)OC(F)(F)O4)cn2)c(Cl)c1 [Compound 13]
< 600 nM		—	COc1ccc(F)cc1CNc1ccc(-c2cc3c(cc2Cl)OC(F)(F)O3)cn1 [Compound 14]
< 600 nM	> 1200 nM		COc1ccccc1CNc1ccc(-c2cc3c(cc2Cl)OC(F)(F)O3)cn1 [Compound 15]
< 600 nM	600 to 1200 nM		Fc1cccc(CNc2ccc(-c3cc4c(cc3Cl)OC(F)(F)O4)cn2)c1 [Compound 16]
< 600 nM	600 to 1200 nM		Cc1cc2c(cc1-c1ccc(NCc3c(F)cccc3F)nc1)CCC2 [Compound 17]
< 600 nM		—	Cc1ccc(F)cc1CNc1ccc(-c2cc3c(cc2C)CCC3)cn1 [Compound 18]
< 600 nM	< 600 nM		Cc1ccccc1CNc1ccc(-c2cc3c(cc2C)OC(F)(F)O3)cn1 [Compound 19]
< 600 nM	> 1200 nM		Cc1cc2c(cc1-c1ccc(NCc3ccccc3Cl)nc1)OC(F)(F)O2 [Compound 20]
< 600 nM	< 600 nM		Cc1cc2c(cc1-c1ccc(NCc3ccccc3F)nc1)OC(F)(F)O2 [Compound 21]
< 600 nM	> 1200 nM		Cc1cc2c(cc1-c1ccc(NCc3c(F)cccc3Cl)nc1)OC(F)(F)O2 [Compound 22]
< 600 nM	600 to 1200 nM		Cc1cc2c(cc1-c1cnc(NCc3c(F)cc(F)cc3F)cn1)OC(F)(F)O2 [Compound 23]
< 600 nM			Cc1cc2c(cc1-c1ccc(NCc3c(F)cc(F)cc3F)nc1)OC(F)(F)O2 [Compound 24]
< 600 nM			Cc1cc2c(cc1-c1ccc(NCc3c(F)ccc(F)c3F)nc1)OC(F)(F)O2 [Compound 25]
< 600 nM			Cc1sc(C(F)(F)F)nc1-c1ccc(NCc2ccccc2F)nc1 [Compound 26]
